Source: the kinase profiling compilation of Christmann-Franck et al. (2016)

Tests used:
Assay in all cases: radiometric filter-binding kinase assay
DYRK3 (human) = DYRK3 (human) (UniProt O43781)
CSNK1D (human) = CSNK1D (human) (UniProt P48730)
NTRK1 (human) = NTRK1 (human) (UniProt P04629)
MARK3 (human) = MARK3 (human) (UniProt P27448)
[1] = test system: AKT1 (human), P31749 [S473D]
MAPK8 (human) = MAPK8 (human) (UniProt P45983)
MAPKAPK2 (human) = MAPKAPK2 (human) (UniProt P49137)
JAK2 JH1 JH2 (human) = JAK2 JH1 JH2 (human) (UniProt O60674)
MARK2 (human) = MARK2 (human) (UniProt Q7KZI7)
MAPK3 (human) = MAPK3 (human) (UniProt P27361)
Chain of MAPK3 (human) (P27361 whole entry, looked up): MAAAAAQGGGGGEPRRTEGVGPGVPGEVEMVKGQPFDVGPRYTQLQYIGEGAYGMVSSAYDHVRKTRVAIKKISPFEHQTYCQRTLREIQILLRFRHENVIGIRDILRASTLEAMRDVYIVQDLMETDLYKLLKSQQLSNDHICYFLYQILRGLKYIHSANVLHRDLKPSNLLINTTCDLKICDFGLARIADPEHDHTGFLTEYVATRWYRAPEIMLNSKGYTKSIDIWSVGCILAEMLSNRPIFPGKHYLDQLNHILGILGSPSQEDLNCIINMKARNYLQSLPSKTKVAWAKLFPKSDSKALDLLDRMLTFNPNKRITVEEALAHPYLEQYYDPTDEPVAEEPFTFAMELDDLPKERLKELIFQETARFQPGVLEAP

DYRK1A (human) = DYRK1A (human) (UniProt Q13627)
CHEK2 (human) = CHEK2 (human) (UniProt O96017)
NEK6 (human) = NEK6 (human) (UniProt Q9HC98)
Chain of NEK6 (human) (Q9HC98 whole entry, looked up): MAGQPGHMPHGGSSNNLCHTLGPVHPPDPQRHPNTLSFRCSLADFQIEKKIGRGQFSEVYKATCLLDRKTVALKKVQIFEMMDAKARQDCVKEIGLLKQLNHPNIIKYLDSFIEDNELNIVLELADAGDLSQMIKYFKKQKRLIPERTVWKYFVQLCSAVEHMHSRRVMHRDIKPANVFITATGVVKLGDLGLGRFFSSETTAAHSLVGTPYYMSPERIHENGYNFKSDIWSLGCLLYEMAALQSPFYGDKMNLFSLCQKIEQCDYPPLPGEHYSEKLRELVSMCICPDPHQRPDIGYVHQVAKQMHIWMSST

MAPK9 (human) = MAPK9 (human) (UniProt P45984)
TTK (human) = TTK (human) (UniProt P33981)
IRAK4 (human) = IRAK4 (human) (UniProt Q9NWZ3)
PAK4 (human) = PAK4 (human) (UniProt O96013)
IKBKB (human) = IKBKB (human) (UniProt O14920)
MAP2K1 (human) = MAP2K1 (human) (UniProt Q02750)
Chain of MAP2K1 (human) (Q02750 whole entry, looked up): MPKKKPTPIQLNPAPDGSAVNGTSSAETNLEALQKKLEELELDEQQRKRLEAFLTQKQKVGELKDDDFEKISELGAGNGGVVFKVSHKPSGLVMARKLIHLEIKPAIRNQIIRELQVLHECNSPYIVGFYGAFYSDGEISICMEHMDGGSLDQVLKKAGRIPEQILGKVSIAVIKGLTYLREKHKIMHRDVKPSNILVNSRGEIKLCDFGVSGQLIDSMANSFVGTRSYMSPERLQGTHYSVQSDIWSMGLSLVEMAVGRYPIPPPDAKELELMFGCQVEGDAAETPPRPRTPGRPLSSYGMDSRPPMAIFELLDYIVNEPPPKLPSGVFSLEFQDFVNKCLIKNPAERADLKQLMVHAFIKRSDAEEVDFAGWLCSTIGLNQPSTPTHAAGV

RPS6KA1 KD1 KD2 (human) = RPS6KA1 KD1 KD2 (human) (UniProt Q15418)
IKBKE (human) = IKBKE (human) (UniProt Q14164)
MARK1 (human) = MARK1 (human) (UniProt Q9P0L2)
[2] = biological target: STK11 CAB39 STRADA (human) (UniProt Q9Y376+Q7RTN6+Q15831)
Chain of STK11 CAB39 STRADA (human) (Q15831 whole entry, looked up): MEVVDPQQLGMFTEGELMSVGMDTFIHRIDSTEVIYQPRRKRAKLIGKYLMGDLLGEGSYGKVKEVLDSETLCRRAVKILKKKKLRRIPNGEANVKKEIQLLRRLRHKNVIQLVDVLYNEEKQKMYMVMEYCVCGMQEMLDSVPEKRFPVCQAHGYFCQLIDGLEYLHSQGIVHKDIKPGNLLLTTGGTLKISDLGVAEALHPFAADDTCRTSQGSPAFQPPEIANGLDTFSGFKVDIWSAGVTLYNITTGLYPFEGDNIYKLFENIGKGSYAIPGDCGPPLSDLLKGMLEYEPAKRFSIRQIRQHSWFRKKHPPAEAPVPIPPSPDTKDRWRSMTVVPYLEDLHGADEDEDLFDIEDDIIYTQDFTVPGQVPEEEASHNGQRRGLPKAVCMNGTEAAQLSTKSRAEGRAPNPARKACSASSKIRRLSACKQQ
Chain of STK11 CAB39 STRADA (human) (Q7RTN6 whole entry, looked up): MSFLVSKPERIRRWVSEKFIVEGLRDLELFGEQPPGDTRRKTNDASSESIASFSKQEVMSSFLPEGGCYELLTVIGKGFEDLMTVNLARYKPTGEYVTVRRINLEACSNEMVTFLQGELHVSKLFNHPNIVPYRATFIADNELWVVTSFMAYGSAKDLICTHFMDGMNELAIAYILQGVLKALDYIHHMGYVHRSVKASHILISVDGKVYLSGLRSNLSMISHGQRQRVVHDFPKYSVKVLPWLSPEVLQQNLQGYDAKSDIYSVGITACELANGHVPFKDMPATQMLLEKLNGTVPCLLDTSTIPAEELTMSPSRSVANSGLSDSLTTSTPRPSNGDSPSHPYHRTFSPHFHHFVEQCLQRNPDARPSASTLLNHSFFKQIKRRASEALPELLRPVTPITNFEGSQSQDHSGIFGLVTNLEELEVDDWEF
Chain of STK11 CAB39 STRADA (human) (Q9Y376 whole entry, looked up): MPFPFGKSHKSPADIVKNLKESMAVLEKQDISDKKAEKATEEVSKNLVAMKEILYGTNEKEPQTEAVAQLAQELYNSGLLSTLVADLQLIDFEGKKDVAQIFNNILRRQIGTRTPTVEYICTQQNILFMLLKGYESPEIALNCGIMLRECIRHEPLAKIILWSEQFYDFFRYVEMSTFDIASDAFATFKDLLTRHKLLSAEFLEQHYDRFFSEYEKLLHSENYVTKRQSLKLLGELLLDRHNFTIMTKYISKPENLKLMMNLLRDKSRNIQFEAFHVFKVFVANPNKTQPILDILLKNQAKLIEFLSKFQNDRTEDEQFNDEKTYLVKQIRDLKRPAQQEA

MKNK1 (human) = MKNK1 (human) (UniProt Q9BUB5)
MAP3K11 (human) = MAP3K11 (human) (UniProt Q16584)
NUAK1 (human) = NUAK1 (human) (UniProt O60285)
MAPK14 (human) = MAPK14 (human) (UniProt Q16539)
TBK1 (human) = TBK1 (human) (UniProt Q9UHD2)
CaMK1 (human) = CaMK1 (human) (UniProt Q14012)
MKNK2 (human) = MKNK2 (human) (UniProt Q9HBH9)
Chain of MKNK2 (human) (Q9HBH9 whole entry, looked up): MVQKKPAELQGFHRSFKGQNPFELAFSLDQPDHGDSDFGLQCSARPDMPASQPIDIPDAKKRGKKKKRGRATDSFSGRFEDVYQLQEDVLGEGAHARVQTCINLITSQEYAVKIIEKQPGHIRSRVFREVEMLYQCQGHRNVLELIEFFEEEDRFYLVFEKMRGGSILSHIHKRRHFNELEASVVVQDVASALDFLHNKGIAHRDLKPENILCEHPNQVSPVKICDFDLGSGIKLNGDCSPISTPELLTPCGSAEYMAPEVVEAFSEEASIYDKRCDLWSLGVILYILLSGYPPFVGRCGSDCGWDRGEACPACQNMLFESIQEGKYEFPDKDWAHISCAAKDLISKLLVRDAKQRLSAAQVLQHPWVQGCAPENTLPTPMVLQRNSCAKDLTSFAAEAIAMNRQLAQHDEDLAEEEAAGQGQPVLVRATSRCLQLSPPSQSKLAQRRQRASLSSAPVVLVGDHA

STK3 (human) = STK3 (human) (UniProt Q13188)
[3] = test system: RPS6KB1 (human), P23443 [T412E]
EPHB2 (human) = EPHB2 (human) (UniProt P29323)
Chain of EPHB2 (human) (P29323 whole entry, looked up): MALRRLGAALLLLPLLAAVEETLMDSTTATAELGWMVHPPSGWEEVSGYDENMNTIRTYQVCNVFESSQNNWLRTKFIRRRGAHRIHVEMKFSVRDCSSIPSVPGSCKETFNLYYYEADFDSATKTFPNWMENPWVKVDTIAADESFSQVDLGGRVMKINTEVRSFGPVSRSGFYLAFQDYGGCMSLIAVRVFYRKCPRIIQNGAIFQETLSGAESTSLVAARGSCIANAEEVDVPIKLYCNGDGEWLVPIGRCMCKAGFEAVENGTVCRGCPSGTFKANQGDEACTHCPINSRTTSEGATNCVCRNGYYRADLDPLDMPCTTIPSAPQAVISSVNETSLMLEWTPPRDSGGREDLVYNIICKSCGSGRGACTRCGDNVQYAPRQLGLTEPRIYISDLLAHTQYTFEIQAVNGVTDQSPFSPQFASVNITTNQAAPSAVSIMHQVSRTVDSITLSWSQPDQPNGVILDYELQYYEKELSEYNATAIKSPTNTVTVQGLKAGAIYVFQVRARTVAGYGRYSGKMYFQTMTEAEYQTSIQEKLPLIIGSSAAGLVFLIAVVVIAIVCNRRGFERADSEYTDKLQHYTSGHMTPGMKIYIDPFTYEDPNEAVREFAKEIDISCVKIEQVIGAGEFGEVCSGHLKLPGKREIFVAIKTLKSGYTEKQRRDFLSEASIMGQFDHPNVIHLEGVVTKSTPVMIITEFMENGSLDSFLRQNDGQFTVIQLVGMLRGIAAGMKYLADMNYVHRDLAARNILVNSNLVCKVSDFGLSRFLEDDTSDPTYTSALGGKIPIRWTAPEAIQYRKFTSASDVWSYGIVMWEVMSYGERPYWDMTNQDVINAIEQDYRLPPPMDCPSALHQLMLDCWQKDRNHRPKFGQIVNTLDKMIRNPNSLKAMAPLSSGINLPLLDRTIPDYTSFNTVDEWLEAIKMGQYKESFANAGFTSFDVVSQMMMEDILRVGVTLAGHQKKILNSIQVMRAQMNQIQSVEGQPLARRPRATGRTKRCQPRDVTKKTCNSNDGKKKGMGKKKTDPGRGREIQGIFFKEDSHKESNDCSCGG

PIM1 (human) = PIM1 (human) (UniProt P11309)
NEK2 (human) = NEK2 (human) (UniProt P51955)

Chain of MARK3 (human) (P27448 whole entry, looked up): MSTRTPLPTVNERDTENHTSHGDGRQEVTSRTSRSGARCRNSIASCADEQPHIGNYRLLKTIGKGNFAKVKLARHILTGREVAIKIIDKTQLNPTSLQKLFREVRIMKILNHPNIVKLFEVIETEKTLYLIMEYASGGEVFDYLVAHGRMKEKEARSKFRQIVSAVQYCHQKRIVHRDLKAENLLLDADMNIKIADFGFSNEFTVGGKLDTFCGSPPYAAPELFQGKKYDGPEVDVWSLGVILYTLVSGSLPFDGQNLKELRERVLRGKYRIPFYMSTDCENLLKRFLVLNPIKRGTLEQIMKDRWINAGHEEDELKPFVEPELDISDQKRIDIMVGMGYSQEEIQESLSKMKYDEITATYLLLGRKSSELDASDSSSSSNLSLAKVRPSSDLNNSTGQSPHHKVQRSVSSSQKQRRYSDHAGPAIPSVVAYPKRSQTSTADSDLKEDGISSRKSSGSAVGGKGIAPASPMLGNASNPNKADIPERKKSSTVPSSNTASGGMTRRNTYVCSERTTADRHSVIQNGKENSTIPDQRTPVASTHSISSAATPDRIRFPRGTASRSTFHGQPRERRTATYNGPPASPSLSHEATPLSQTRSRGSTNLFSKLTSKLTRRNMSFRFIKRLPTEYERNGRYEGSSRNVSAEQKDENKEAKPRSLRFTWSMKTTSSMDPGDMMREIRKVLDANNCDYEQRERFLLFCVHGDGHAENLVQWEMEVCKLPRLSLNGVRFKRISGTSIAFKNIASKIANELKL
Chain of MAPK8 (human) (P45983 whole entry, looked up): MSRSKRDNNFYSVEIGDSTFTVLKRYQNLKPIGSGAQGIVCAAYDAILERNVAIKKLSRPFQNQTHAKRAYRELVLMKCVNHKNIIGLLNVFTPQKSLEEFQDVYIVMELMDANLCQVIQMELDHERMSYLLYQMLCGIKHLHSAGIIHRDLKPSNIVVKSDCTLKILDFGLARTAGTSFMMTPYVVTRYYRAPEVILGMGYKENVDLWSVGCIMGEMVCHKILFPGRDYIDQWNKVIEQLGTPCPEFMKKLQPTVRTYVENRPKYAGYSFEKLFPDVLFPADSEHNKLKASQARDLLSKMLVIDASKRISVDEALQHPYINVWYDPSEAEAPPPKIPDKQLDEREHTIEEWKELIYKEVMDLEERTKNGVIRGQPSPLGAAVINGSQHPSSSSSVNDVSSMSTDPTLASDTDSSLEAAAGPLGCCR

- residual activity (DYRK3 (human); compound 0.1 µM): 89%
- residual activity (DYRK3 (human); compound 1.0 µM): 78%
- residual activity (DYRK3 (human); compound 10.0 µM): 43%
- residual activity (CSNK1D (human); compound 0.1 µM): 99%
- residual activity (CSNK1D (human); compound 1.0 µM): 87%
- residual activity (CSNK1D (human); compound 10.0 µM): 68%
- residual activity (NTRK1 (human); compound 0.1 µM): 14%
- residual activity (NTRK1 (human); compound 1.0 µM): 19%
- residual activity (NTRK1 (human); compound 10.0 µM): 4%
- residual activity (MARK3 (human); compound 0.1 µM): 103%
- residual activity (MARK3 (human); compound 1.0 µM): 89%
- residual activity (MARK3 (human); compound 10.0 µM): 57%
- residual activity ([1]; compound 0.1 µM): 105%
- residual activity ([1]; compound 1.0 µM): 86%
- residual activity ([1]; compound 10.0 µM): 53%
- residual activity (MAPK8 (human); compound 0.1 µM): 98%
- residual activity (MAPK8 (human); compound 1.0 µM): 99%
- residual activity (MAPK8 (human); compound 10.0 µM): 53%
- residual activity (MAPKAPK2 (human); compound 0.1 µM): 98%
- residual activity (MAPKAPK2 (human); compound 1.0 µM): 86%
- residual activity (MAPKAPK2 (human); compound 10.0 µM): 80%
- residual activity (JAK2 JH1 JH2 (human); compound 0.1 µM): 84%
- residual activity (JAK2 JH1 JH2 (human); compound 1.0 µM): 80%
- residual activity (JAK2 JH1 JH2 (human); compound 10.0 µM): 30%
- residual activity (MARK2 (human); compound 0.1 µM): 81%
- residual activity (MARK2 (human); compound 1.0 µM): 87%
- residual activity (MARK2 (human); compound 10.0 µM): 44%
- residual activity (MAPK3 (human); compound 0.1 µM): 103%
- residual activity (MAPK3 (human); compound 1.0 µM): 78%
- residual activity (MAPK3 (human); compound 10.0 µM): 99%
- residual activity (DYRK1A (human); compound 0.1 µM): 103%
- residual activity (DYRK1A (human); compound 1.0 µM): 101%
- residual activity (DYRK1A (human); compound 10.0 µM): 61%
- residual activity (CHEK2 (human); compound 0.1 µM): 20%
- residual activity (CHEK2 (human); compound 1.0 µM): 18%
- residual activity (CHEK2 (human); compound 10.0 µM): 4%
- residual activity (NEK6 (human); compound 0.1 µM): 103%
- residual activity (NEK6 (human); compound 1.0 µM): 101%
- residual activity (NEK6 (human); compound 10.0 µM): 85%
- residual activity (MAPK9 (human); compound 0.1 µM): 98%
- residual activity (MAPK9 (human); compound 1.0 µM): 94%
- residual activity (MAPK9 (human); compound 10.0 µM): 54%
- residual activity (TTK (human); compound 0.1 µM): 75%
- residual activity (TTK (human); compound 1.0 µM): 73%
- residual activity (TTK (human); compound 10.0 µM): 42%
- residual activity (IRAK4 (human); compound 0.1 µM): 5%
- residual activity (IRAK4 (human); compound 1.0 µM): 3%
- residual activity (IRAK4 (human); compound 10.0 µM): 2%
- residual activity (PAK4 (human); compound 0.1 µM): 69%
- residual activity (PAK4 (human); compound 1.0 µM): 67%
- residual activity (PAK4 (human); compound 10.0 µM): 20%
- residual activity (IKBKB (human); compound 0.1 µM): 107%
- residual activity (IKBKB (human); compound 1.0 µM): 92%
- residual activity (IKBKB (human); compound 10.0 µM): 84%
- residual activity (MAP2K1 (human); compound 0.1 µM): 96%
- residual activity (MAP2K1 (human); compound 1.0 µM): 85%
- residual activity (MAP2K1 (human); compound 10.0 µM): 40%
- residual activity (RPS6KA1 KD1 KD2 (human); compound 0.1 µM): 31%
- residual activity (RPS6KA1 KD1 KD2 (human); compound 1.0 µM): 29%
- residual activity (RPS6KA1 KD1 KD2 (human); compound 10.0 µM): 6%
- residual activity (IKBKE (human); compound 0.1 µM): 91%
- residual activity (IKBKE (human); compound 1.0 µM): 80%
- residual activity (IKBKE (human); compound 10.0 µM): 76%
- residual activity (MARK1 (human); compound 0.1 µM): 70%
- residual activity (MARK1 (human); compound 1.0 µM): 78%
- residual activity (MARK1 (human); compound 10.0 µM): 58%
- residual activity ([2]; compound 0.1 µM): 64%
- residual activity ([2]; compound 1.0 µM): 62%
- residual activity ([2]; compound 10.0 µM): 8%
- residual activity (MKNK1 (human); compound 0.1 µM): 97%
- residual activity (MKNK1 (human); compound 1.0 µM): 103%
- residual activity (MKNK1 (human); compound 10.0 µM): 77%
- residual activity (MAP3K11 (human); compound 0.1 µM): 84%
- residual activity (MAP3K11 (human); compound 1.0 µM): 77%
- residual activity (MAP3K11 (human); compound 10.0 µM): 51%
- residual activity (NUAK1 (human); compound 0.1 µM): 40%
- residual activity (NUAK1 (human); compound 1.0 µM): 37%
- residual activity (NUAK1 (human); compound 10.0 µM): 7%
- residual activity (MAPK14 (human); compound 0.1 µM): 101%
- residual activity (MAPK14 (human); compound 1.0 µM): 89%
- residual activity (MAPK14 (human); compound 10.0 µM): 47%
- residual activity (TBK1 (human); compound 0.1 µM): 87%
- residual activity (TBK1 (human); compound 1.0 µM): 78%
- residual activity (TBK1 (human); compound 10.0 µM): 93%
- residual activity (CaMK1 (human); compound 0.1 µM): 62%
- residual activity (CaMK1 (human); compound 1.0 µM): 59%
- residual activity (CaMK1 (human); compound 10.0 µM): 11%
- residual activity (MKNK2 (human); compound 0.1 µM): 120%
- residual activity (MKNK2 (human); compound 1.0 µM): 92%
- residual activity (MKNK2 (human); compound 10.0 µM): 73%
- residual activity (STK3 (human); compound 0.1 µM): 16%
- residual activity (STK3 (human); compound 1.0 µM): 19%
- residual activity (STK3 (human); compound 10.0 µM): 3%
- residual activity ([3]; compound 0.1 µM): 95%
- residual activity ([3]; compound 1.0 µM): 92%
- residual activity ([3]; compound 10.0 µM): 11%
- residual activity (EPHB2 (human); compound 0.1 µM): 11%
- residual activity (EPHB2 (human); compound 1.0 µM): 4%
- residual activity (EPHB2 (human); compound 10.0 µM): 4%
- residual activity (PIM1 (human); compound 0.1 µM): 54%
- residual activity (PIM1 (human); compound 1.0 µM): 49%
- residual activity (PIM1 (human); compound 10.0 µM): 11%
- residual activity (NEK2 (human); compound 0.1 µM): 108%
- residual activity (NEK2 (human); compound 1.0 µM): 87%
- residual activity (NEK2 (human); compound 10.0 µM): 71%
Structure (SMILES): Cc1ccc(Sc2cnc(Nc3cccc(Br)n3)s2)cc1C(=O)N1CCN(C(=O)CN)CC1
